Reference: the CheMixHub viscosity set

Assay: xn = mol fraction of the nth substance listed

C1CCC2=[NH+]CCCN2CC1.c1nc[n-]n1 + CN(C)C=O
303.15 K, 100 kPa
Conditions | viscosity [mPa·s]
x1 = 0.1001 | 1.42
x1 = 0.2 | 3.07
x1 = 0.2999 | 6.28
x1 = 0.4003 | 11.77
x1 = 0.4989 | 25.38
x1 = 0.6002 | 46.11
x1 = 0.7008 | 98.43
x1 = 0.7993 | 195
x1 = 0.9002 | 470.1

CC1CCC(C)O1 (centres undefined) + ClC1CCCCC1
viscosity [mPa·s], 101.3 kPa
Conditions | x1 = 0.0973 | x1 = 0.2014 | x1 = 0.3026 | x1 = 0.3986 | x1 = 0.4986 | x1 = 0.6031 | x1 = 0.7002 | x1 = 0.7977 | x1 = 0.8986
298.15 K | 1.36 | 1.179 | 1.033 | 0.9191 | 0.818 | 0.7279 | 0.6563 | 0.5937 | 0.5366
313.15 K | 1.073 | 0.9412 | 0.8337 | 0.7486 | 0.6724 | 0.6054 | 0.551 | 0.499 | 0.452

CCCCCOC(C)=O + ClC(Cl)(Cl)Cl
303.15 K, 101.3 kPa
Conditions | viscosity [mPa·s]
x1 = 0.0945 | 0.8029
x1 = 0.1925 | 0.7788
x1 = 0.3042 | 0.7586
x1 = 0.4017 | 0.7482
x1 = 0.5021 | 0.7413
x1 = 0.6003 | 0.7378
x1 = 0.7016 | 0.7385
x1 = 0.808 | 0.7427
x1 = 0.9075 | 0.746

C=CC(=O)OC + CCCCO
viscosity [mPa·s], 101.33 kPa
Conditions | 308.15 K | 318.15 K
x1 = 0.0466 | 1.721 | 1.393
x1 = 0.1448 | 1.322 | 1.115
x1 = 0.2429 | 1.042 | 0.908
x1 = 0.3387 | 0.847 | 0.755
x1 = 0.4481 | 0.688 | 0.625
x1 = 0.5003 | 0.63 | 0.575
x1 = 0.5436 | 0.589 | 0.539
x1 = 0.6469 | 0.512 | 0.468
x1 = 0.7461 | 0.459 | 0.416
x1 = 0.8469 | 0.422 | 0.375
x1 = 0.9456 | 0.399 | 0.346

CCOC(=O)CC + C1CCCCC1
viscosity [mPa·s], 101 kPa
Conditions | 298.15 K | 308.15 K
x1 = 0.0526 | 0.835 | 0.709
x1 = 0.1334 | 0.767 | 0.65
x1 = 0.2568 | 0.686 | 0.579
x1 = 0.3148 | 0.656 | 0.553
x1 = 0.4538 | 0.603 | 0.505
x1 = 0.4986 | 0.59 | 0.493
x1 = 0.5085 | 0.588 | 0.491
x1 = 0.6558 | 0.561 | 0.465
x1 = 0.7181 | 0.556 | 0.459
x1 = 0.8504 | 0.556 | 0.456
x1 = 0.9312 | 0.564 | 0.459

CC1=CCC2CC1C2(C)C (centres undefined) + COC(C)(C)C
298.15 K, 101.33 kPa
Conditions | viscosity [mPa·s]
x2 = 0.0598 | 1.196
x2 = 0.128 | 1.091
x2 = 0.2151 | 0.9713
x2 = 0.357 | 0.8048
x2 = 0.4839 | 0.6762
x2 = 0.5691 | 0.603
x2 = 0.6514 | 0.5379
x2 = 0.7236 | 0.4866
x2 = 0.8254 | 0.4221
x2 = 0.9034 | 0.379
x2 = 0.9583 | 0.3576

Cc1ccccc1O + c1ccncc1
viscosity [mPa·s], 101 kPa
Conditions | x1 = 0.09109 | x1 = 0.1923 | x1 = 0.2702 | x1 = 0.3823 | x1 = 0.4812 | x1 = 0.5958 | x1 = 0.7186 | x1 = 0.8145 | x1 = 0.8918
293.15 K | 1.176 | 1.556 | 1.983 | 2.962 | 4.455 | 6.845 | 9.26 | 10.04 | 10.01
303.15 K | 1.022 | 1.35 | 1.724 | 2.56 | 3.625 | 4.935 | 6.23 | 6.565 | 6.45
313.15 K | 0.886 | 1.148 | 1.436 | 2.045 | 2.75 | 3.575 | 4.29 | 4.415 | 4.325

C1CCC2=[NH+]CCCN2CC1.c1nc[n-]n1 + CCCCO
303.15 K, 100 kPa
Conditions | viscosity [mPa·s]
x1 = 0.1001 | 6.47
x1 = 0.2 | 12.31
x1 = 0.2999 | 22.82
x1 = 0.4003 | 42.54
x1 = 0.4989 | 74.34
x1 = 0.6002 | 128.6
x1 = 0.7008 | 204.7
x1 = 0.7993 | 423.5
x1 = 0.9002 | 608.2

C=CC(=O)OCCCC + CCOCCOCCO
viscosity [mPa·s], 101 kPa
Conditions | 293.15 K | 298.15 K | 303.15 K | 308.15 K | 313.15 K | 318.15 K
x2 = 0.0702 | 0.966 | 0.899 | 0.837 | 0.782 | 0.733 | 0.687
x2 = 0.1444 | 1.059 | 0.977 | 0.904 | 0.839 | 0.783 | 0.733
x2 = 0.2183 | 1.167 | 1.07 | 0.986 | 0.913 | 0.849 | 0.791
x2 = 0.2855 | 1.287 | 1.175 | 1.078 | 0.994 | 0.92 | 0.854
x2 = 0.3658 | 1.453 | 1.332 | 1.207 | 1.108 | 1.022 | 0.947
x2 = 0.4403 | 1.637 | 1.499 | 1.346 | 1.233 | 1.127 | 1.039
x2 = 0.5027 | 1.819 | 1.649 | 1.477 | 1.343 | 1.227 | 1.126
x2 = 0.569 | 2.028 | 1.817 | 1.646 | 1.488 | 1.351 | 1.236
x2 = 0.6545 | 2.363 | 2.103 | 1.884 | 1.697 | 1.531 | 1.393
x2 = 0.7189 | 2.654 | 2.336 | 2.079 | 1.871 | 1.672 | 1.527
x2 = 0.787 | 2.982 | 2.609 | 2.295 | 2.069 | 1.842 | 1.681
x2 = 0.8385 | 3.27 | 2.85 | 2.481 | 2.243 | 1.992 | 1.816
x2 = 0.9319 | 3.843 | 3.312 | 2.873 | 2.586 | 2.28 | 2.07

CC(C)CO + CCCCCCC
303.15 K, 101.33 kPa
Conditions | viscosity [mPa·s]
x2 = 0.1513 | 1.552
x2 = 0.3016 | 1.023
x2 = 0.4515 | 0.724
x2 = 0.6022 | 0.562
x2 = 0.7374 | 0.478
x2 = 0.8984 | 0.421

CCCCCOC(C)=O + O
303.15 K, 101.3 kPa
Conditions | viscosity [mPa·s]
x2 = 0.0121 | 0.796
x2 = 0.0385 | 0.801
x2 = 0.0645 | 0.805
x2 = 0.0655 | 0.805
x2 = 0.0854 | 0.809

Cc1ccccc1O + C1COCCO1
308.15 K, 101 kPa
Conditions | viscosity [mPa·s]
x2 = 0.1 | 4.947
x2 = 0.2 | 4.855
x2 = 0.3 | 4.267
x2 = 0.4 | 3.498
x2 = 0.5 | 2.795
x2 = 0.6 | 2.208
x2 = 0.7 | 1.764
x2 = 0.8 | 1.382
x2 = 0.9 | 1.163

Cc1ccccc1O + c1ccccc1
viscosity [mPa·s]
Conditions | 298.15 K | 308.15 K | 318.15 K | 323.15 K
101 kPa, x1 = 0.1176 | – | 0.641 | – | –
101 kPa, x1 = 0.2203 | – | 0.7752 | – | –
101 kPa, x1 = 0.3357 | – | 0.9753 | – | –
101 kPa, x1 = 0.4352 | – | 1.164 | – | –
101 kPa, x1 = 0.5693 | – | 1.535 | – | –
101 kPa, x1 = 0.6728 | – | 2.109 | – | –
101 kPa, x1 = 0.7757 | – | 2.775 | – | –
101 kPa, x1 = 0.896 | – | 3.774 | – | –
101.33 kPa, x1 = 0.1 | 0.704 | 0.609 | 0.531 | 0.497
101.33 kPa, x1 = 0.2 | 0.849 | 0.727 | 0.623 | 0.578
101.33 kPa, x1 = 0.4 | 1.319 | 1.073 | 0.894 | 0.815
101.33 kPa, x1 = 0.5 | 1.661 | 1.334 | 1.084 | 0.981
101.33 kPa, x1 = 0.6 | 2.148 | 1.668 | 1.331 | 1.186
101.33 kPa, x1 = 0.8 | 3.874 | 2.766 | 2.067 | 1.807

CC(C)CO + c1ccccc1
303 K, 101.3 kPa
Conditions | viscosity [mPa·s]
x2 = 0.1012 | 2.322
x2 = 0.2055 | 1.88
x2 = 0.3024 | 1.551
x2 = 0.4124 | 1.26
x2 = 0.511 | 1.057
x2 = 0.6016 | 0.9052
x2 = 0.706 | 0.7704
x2 = 0.8037 | 0.6783
x2 = 0.8987 | 0.6131

CCCCCOC(C)=O + CCCCOC(C)=O
298.15 K, 101.33 kPa
Conditions | viscosity [mPa·s]
x2 = 0.1116 | 0.834
x2 = 0.2559 | 0.81
x2 = 0.3941 | 0.787
x2 = 0.5285 | 0.76
x2 = 0.6578 | 0.738
x2 = 0.7859 | 0.715
x2 = 0.9088 | 0.694

C=CC(=O)OC + CCCCCCC
viscosity [mPa·s], 100 kPa
Conditions | x1 = 0.1065 | x1 = 0.2053 | x1 = 0.3084 | x1 = 0.4061 | x1 = 0.5019 | x1 = 0.6048 | x1 = 0.703 | x1 = 0.8014 | x1 = 0.9456
303.15 K | 0.367 | 0.361 | 0.36 | 0.362 | 0.367 | 0.375 | 0.387 | 0.402 | 0.426
308.15 K | 0.337 | 0.333 | 0.332 | 0.336 | 0.343 | 0.353 | 0.365 | 0.381 | 0.406
313.15 K | 0.329 | 0.326 | 0.325 | 0.326 | 0.332 | 0.341 | 0.352 | 0.366 | 0.388

O=C1CCCN1C1CCCCC1 + O=C1CCCN1
298.15 K, 100 kPa
Conditions | viscosity [mPa·s]
x1 = 0.0107 | 13.4
x2 = 0.0201 | 10.5
x2 = 0.0289 | 10.56
x2 = 0.0403 | 10.66
x2 = 0.0491 | 10.72
x2 = 0.0694 | 10.86
x2 = 0.08 | 10.94
x2 = 0.0913 | 11.02
x2 = 0.0973 | 11.06
x2 = 0.1019 | 11.11
x2 = 0.1982 | 11.73
x2 = 0.2954 | 12.31
x2 = 0.3091 | 12.44
x2 = 0.389 | 12.77
x2 = 0.4916 | 13.18
x2 = 0.602 | 13.5
x2 = 0.7053 | 13.64
x2 = 0.8042 | 13.66
x2 = 0.902 | 13.66
x2 = 0.9031 | 13.63
x2 = 0.9108 | 13.62
x2 = 0.9153 | 13.63
x2 = 0.9306 | 13.59
x2 = 0.9503 | 13.56
x2 = 0.9597 | 13.54
x2 = 0.9696 | 13.49
x2 = 0.979 | 13.45

CCOC(=O)CC + CO
303.15 K, 101.33 kPa
Conditions | viscosity [mPa·s]
x1 = 0.1102 | 0.524
x1 = 0.1551 | 0.525
x1 = 0.2735 | 0.526
x1 = 0.3189 | 0.527
x1 = 0.3721 | 0.528
x1 = 0.4967 | 0.527
x1 = 0.5395 | 0.524
x1 = 0.613 | 0.521
x1 = 0.6625 | 0.518
x1 = 0.7231 | 0.514
x1 = 0.8087 | 0.508
x1 = 0.9141 | 0.501
